From the NIST ThermoML archive (doi:10.1016/j.jct.2005.08.002)
± gives the expanded uncertainty stated by the source.

What was measured:
[1] = 101 kPa, Liquid; for viscosity: Capillary tube (Ostwald / Ubbelohde) method; for speed of sound: Sing-around technique in a fixed-path interferometer; for mass density: Vibrating tube method
[2] = xn = mol fraction of the nth substance listed; conditions: 101 kPa, Liquid, x2 = 0; for viscosity: Capillary tube (Ostwald / Ubbelohde) method; for speed of sound: Sing-around technique in a fixed-path interferometer; for mass density: Vibrating tube method

| Structure (SMILES) | viscosity ([1]; 293.15 K) | speed of sound ([1]; 293.15 K) | mass density ([1]; 293.15 K) | viscosity ([1]; 298.15 K) | speed of sound ([1]; 298.15 K) | mass density ([1]; 298.15 K) | viscosity ([1]; 303.15 K) | speed of sound ([1]; 303.15 K) | mass density ([1]; 303.15 K) | viscosity ([2]; 293.15 K) | speed of sound ([2]; 293.15 K) | mass density ([2]; 293.15 K) | viscosity ([2]; 298.15 K) | speed of sound ([2]; 298.15 K) | mass density ([2]; 298.15 K) | viscosity ([2]; 303.15 K) | speed of sound ([2]; 303.15 K) | mass density ([2]; 303.15 K) |
| --- | --- | --- | --- | --- | --- | --- | --- | --- | --- | --- | --- | --- | --- | --- | --- | --- | --- | --- |
| CC1CCCC1 [methylcyclopentane] | 0.504 ± 0.016 mPa·s | 1197 ± 5 m/s | 746.64 ± 2 kg/m3 | 0.476 ± 0.016 mPa·s | 1174 ± 5 m/s | 741.94 ± 2 kg/m3 | 0.45 ± 0.015 mPa·s | 1150 ± 5 m/s | 737.21 ± 1.9 kg/m3 |  |  |  |  |  |  |  |  |  |
| CCCC(C)=O [pentan-2-one] + CC1CCCC1 |  |  |  |  |  |  |  |  |  | 0.496 ± 0.011 mPa·s | 1233 ± 2 m/s | 806.26 ± 0.23 kg/m3 | 0.469 ± 0.01 mPa·s | 1213 ± 2 m/s | 801.42 ± 0.23 kg/m3 | 0.444 ± 0.009 mPa·s | 1192 ± 2 m/s | 796.58 ± 0.23 kg/m3 |
| CC(C)=O [acetone] | 0.32 ± 0.007 mPa·s | 1185 ± 2 m/s | 791.11 ± 0.15 kg/m3 | 0.306 ± 0.007 mPa·s | 1162 ± 2 m/s | 785.41 ± 0.15 kg/m3 | 0.292 ± 0.006 mPa·s | 1140 ± 2 m/s | 779.66 ± 0.15 kg/m3 |  |  |  |  |  |  |  |  |  |
| CC(C)=O [acetone] + CC1CCCC1 |  |  |  |  |  |  |  |  |  | 0.32 ± 0.007 mPa·s | 1185 ± 2 m/s | 791.11 ± 0.15 kg/m3 | 0.306 ± 0.007 mPa·s | 1162 ± 2 m/s | 785.41 ± 0.15 kg/m3 | 0.292 ± 0.006 mPa·s | 1140 ± 2 m/s | 779.66 ± 0.15 kg/m3 |
| CCC(C)=O [butanone] + CC1CCCC1 |  |  |  |  |  |  |  |  |  | 0.398 ± 0.009 mPa·s | 1213 ± 2 m/s | 804.95 ± 0.23 kg/m3 | 0.378 ± 0.008 mPa·s | 1192 ± 2 m/s | 799.74 ± 0.23 kg/m3 | 0.36 ± 0.008 mPa·s | 1171 ± 2 m/s | 794.48 ± 0.23 kg/m3 |
| CCC(C)=O [butanone] | 0.398 ± 0.009 mPa·s | 1213 ± 2 m/s | 804.95 ± 0.23 kg/m3 | 0.378 ± 0.008 mPa·s | 1192 ± 2 m/s | 799.74 ± 0.23 kg/m3 | 0.36 ± 0.008 mPa·s | 1171 ± 2 m/s | 794.48 ± 0.23 kg/m3 |  |  |  |  |  |  |  |  |  |
| CCCC(C)=O [pentan-2-one] | 0.496 ± 0.011 mPa·s | 1233 ± 2 m/s | 806.26 ± 0.23 kg/m3 | 0.469 ± 0.01 mPa·s | 1213 ± 2 m/s | 801.42 ± 0.23 kg/m3 | 0.444 ± 0.009 mPa·s | 1192 ± 2 m/s | 796.58 ± 0.23 kg/m3 |  |  |  |  |  |  |  |  |  |
